test system: Bacillus cereus; assay: agar plate disc-diffusion, antibacterial, Bacillus cereus; format: cell-based; settings: A = concentration of comp. = 10,000 μL; DMSO control zone subtracted
Protocol: (§1) The agar plate disc-diffusion method was applied. Sterilized filter papers (6 mm in diameter) were wetted with 10 μL of a solution of 6-(6-bromo-2-oxo-2H-chromen-3-yl)-4-(4-chlorophenyl)-2-ethoxynicotinonitrile (1) and 6-(6-bromo-2-oxo-2H-chromen-3-yl)-4-(4-chlorophenyl)-2-methoxynicotinonitrile (2) to be tested, containing […], and the discs were allowed to air dry. The discs were then placed onto the surface of agar plates (nutrient agar for bacteria and Sabouraud's dextrose agar for fungi) seeded with the test organism. Each plate contained 15 mL of the agar medium, previously seeded with 0.2 mL of the broth culture of each organism pregrown for 18 hours. The plates were incubated at 37° C. for 48 hours, and 72 hours for fungi. The inhibition zones were measured in millimeters. Discs impregnated with DMSO were used as a control, and its inhibition zone was subtracted from the tested compound actual inhibition zone.
(§2) Their antibacterial screened against gram positive bacteria namely Bacillus cereus and Staphylococcus aureus and gram-negative bacterial strains namely Pseudomonas aeruginosa and Escherichia coli, while their antifungal activity screened against Aspergillus flavus and Chrysosporium keratinophilum as shown in Tables 1 and 2 using ciprofloxacin as a reference.

Compound	inhibition zone, Bacillus Cereus, A [millimeters]
COc1nc(-c2cc3cc(Br)ccc3oc2=O)cc(-c2ccc(Cl)cc2)c1C#N [Compound 2, 6-(6-bromo-2-oxo-2H-chromen-3-yl)-4-(4-chlorophenyl)-2-methoxynicotinonitrile]	25

same assay, conditions: B = concentration of comp. = 30.000 μL; DMSO control zone subtracted

Compound	inhibition zone, Bacillus Cereus, B [millimeters]
COc1nc(-c2cc3cc(Br)ccc3oc2=O)cc(-c2ccc(Cl)cc2)c1C#N [Compound 2, 6-(6-bromo-2-oxo-2H-chromen-3-yl)-4-(4-chlorophenyl)-2-methoxynicotinonitrile]	27

same assay, conditions: C = concentration of comp. = 50,000 μL; DMSO control zone subtracted

Compound	inhibition zone, Bacillus Cereus, C [millimeters]
COc1nc(-c2cc3cc(Br)ccc3oc2=O)cc(-c2ccc(Cl)cc2)c1C#N [Compound 2, 6-(6-bromo-2-oxo-2H-chromen-3-yl)-4-(4-chlorophenyl)-2-methoxynicotinonitrile]	35

test system: Staphylococcus aureus; assay: agar plate disc-diffusion, antibacterial, Staphylococcus aureus; format: cell-based; settings: A = concentration of comp. = 10,000 μL; DMSO control zone subtracted
Protocol: as §1, §2

Compound	inhibition zone, Staphylococcus aureus, A [millimeters]
COc1nc(-c2cc3cc(Br)ccc3oc2=O)cc(-c2ccc(Cl)cc2)c1C#N [Compound 2, 6-(6-bromo-2-oxo-2H-chromen-3-yl)-4-(4-chlorophenyl)-2-methoxynicotinonitrile]	17

same assay, conditions: B = concentration of comp. = 30.000 μL; DMSO control zone subtracted

Compound	inhibition zone, Staphylococcus aureus, B [millimeters]
COc1nc(-c2cc3cc(Br)ccc3oc2=O)cc(-c2ccc(Cl)cc2)c1C#N [Compound 2, 6-(6-bromo-2-oxo-2H-chromen-3-yl)-4-(4-chlorophenyl)-2-methoxynicotinonitrile]	23

same assay, conditions: C = concentration of comp. = 50,000 μL; DMSO control zone subtracted

Compound	inhibition zone, Staphylococcus aureus, C [millimeters]
COc1nc(-c2cc3cc(Br)ccc3oc2=O)cc(-c2ccc(Cl)cc2)c1C#N [Compound 2, 6-(6-bromo-2-oxo-2H-chromen-3-yl)-4-(4-chlorophenyl)-2-methoxynicotinonitrile]	29

test system: Pseudomonas aeruginosa; assay: agar plate disc-diffusion, antibacterial, Pseudomonas aeruginosa; format: cell-based; settings: A = concentration of comp. = 10,000 μL; DMSO control zone subtracted
Protocol: as §1, §2

Compound	inhibition zone, Pseudomonas aeruginosa, A [millimeters]
COc1nc(-c2cc3cc(Br)ccc3oc2=O)cc(-c2ccc(Cl)cc2)c1C#N [Compound 2, 6-(6-bromo-2-oxo-2H-chromen-3-yl)-4-(4-chlorophenyl)-2-methoxynicotinonitrile]	25

same assay, conditions: B = concentration of comp. = 30.000 μL; DMSO control zone subtracted

Compound	inhibition zone, Pseudomonas aeruginosa, B [millimeters]
COc1nc(-c2cc3cc(Br)ccc3oc2=O)cc(-c2ccc(Cl)cc2)c1C#N [Compound 2, 6-(6-bromo-2-oxo-2H-chromen-3-yl)-4-(4-chlorophenyl)-2-methoxynicotinonitrile]	31

same assay, conditions: C = concentration of comp. = 50,000 μL; DMSO control zone subtracted

Compound	inhibition zone, Pseudomonas aeruginosa, C [millimeters]
COc1nc(-c2cc3cc(Br)ccc3oc2=O)cc(-c2ccc(Cl)cc2)c1C#N [Compound 2, 6-(6-bromo-2-oxo-2H-chromen-3-yl)-4-(4-chlorophenyl)-2-methoxynicotinonitrile]	35

test system: Escherichia coli; assay: agar plate disc-diffusion, antibacterial, Escherichia coli; format: cell-based; settings: A = concentration of comp. = 10,000 μL; DMSO control zone subtracted
Protocol: as §1, §2

Compound	inhibition zone, Escherichia coli, A [millimeters]
COc1nc(-c2cc3cc(Br)ccc3oc2=O)cc(-c2ccc(Cl)cc2)c1C#N [Compound 2, 6-(6-bromo-2-oxo-2H-chromen-3-yl)-4-(4-chlorophenyl)-2-methoxynicotinonitrile]	27

same assay, conditions: B = concentration of comp. = 30.000 μL; DMSO control zone subtracted

Compound	inhibition zone, Escherichia coli, B [millimeters]
COc1nc(-c2cc3cc(Br)ccc3oc2=O)cc(-c2ccc(Cl)cc2)c1C#N [Compound 2, 6-(6-bromo-2-oxo-2H-chromen-3-yl)-4-(4-chlorophenyl)-2-methoxynicotinonitrile]	34

same assay, conditions: C = concentration of comp. = 50,000 μL; DMSO control zone subtracted

Compound	inhibition zone, Escherichia coli, C [millimeters]
COc1nc(-c2cc3cc(Br)ccc3oc2=O)cc(-c2ccc(Cl)cc2)c1C#N [Compound 2, 6-(6-bromo-2-oxo-2H-chromen-3-yl)-4-(4-chlorophenyl)-2-methoxynicotinonitrile]	48

test system: Aspergillus flavus; assay: agar plate disc-diffusion, antifungal, Aspergillus flavus; format: cell-based; settings: A = concentration of comp. = 10,000 μL; DMSO control zone subtracted
Protocol: as §1, §2

Compound	inhibition zone, Aspergillus flavus, A [millimeters]
COc1nc(-c2cc3cc(Br)ccc3oc2=O)cc(-c2ccc(Cl)cc2)c1C#N [Compound 2, 6-(6-bromo-2-oxo-2H-chromen-3-yl)-4-(4-chlorophenyl)-2-methoxynicotinonitrile]	19

same assay, conditions: B = concentration of comp. = 30.000 μL; DMSO control zone subtracted

Compound	inhibition zone, Aspergillus flavus, B [millimeters]
COc1nc(-c2cc3cc(Br)ccc3oc2=O)cc(-c2ccc(Cl)cc2)c1C#N [Compound 2, 6-(6-bromo-2-oxo-2H-chromen-3-yl)-4-(4-chlorophenyl)-2-methoxynicotinonitrile]	23

same assay, conditions: C = concentration of comp. = 50,000 μL; DMSO control zone subtracted

Compound	inhibition zone, Aspergillus flavus, C [millimeters]
COc1nc(-c2cc3cc(Br)ccc3oc2=O)cc(-c2ccc(Cl)cc2)c1C#N [Compound 2, 6-(6-bromo-2-oxo-2H-chromen-3-yl)-4-(4-chlorophenyl)-2-methoxynicotinonitrile]	33

test system: Chrysosporium keratinophilum; assay: agar plate disc-diffusion, antifungal, Chrysosporium keratinophilum; format: cell-based; settings: A = concentration of comp. = 10,000 μL; DMSO control zone subtracted
Protocol: as §1, §2

Compound	inhibition zone, Chrysosporiam keratinophilum, A [millimeters]
COc1nc(-c2cc3cc(Br)ccc3oc2=O)cc(-c2ccc(Cl)cc2)c1C#N [Compound 2, 6-(6-bromo-2-oxo-2H-chromen-3-yl)-4-(4-chlorophenyl)-2-methoxynicotinonitrile]	25

same assay, conditions: B = concentration of comp. = 30.000 μL; DMSO control zone subtracted

Compound	inhibition zone, Chrysosporiam keratinophilum, B [millimeters]
COc1nc(-c2cc3cc(Br)ccc3oc2=O)cc(-c2ccc(Cl)cc2)c1C#N [Compound 2, 6-(6-bromo-2-oxo-2H-chromen-3-yl)-4-(4-chlorophenyl)-2-methoxynicotinonitrile]	29

same assay, conditions: C = concentration of comp. = 50,000 μL; DMSO control zone subtracted

Compound	inhibition zone, Chrysosporiam keratinophilum, C [millimeters]
COc1nc(-c2cc3cc(Br)ccc3oc2=O)cc(-c2ccc(Cl)cc2)c1C#N [Compound 2, 6-(6-bromo-2-oxo-2H-chromen-3-yl)-4-(4-chlorophenyl)-2-methoxynicotinonitrile]	40
